# Measured values from the NIST ThermoML archive (doi:10.1021/acs.jced.5b00444).
# ± gives the expanded uncertainty stated by the source.
# Assay: molar enthalpy of vaporization or sublimation
# Conditions: 298 K; Liquid; Chromatographic retention time
row,molar enthalpy [kJ/mol],SMILES
1,107.9 ± 0.1,CCCCCCCCCCCCCCCCCC(=O)OC [methyl octadecanoate]
2,119.1 ± 0.1,CCCCCCCCCCCCCCCCCCCCCCCCC [pentacosane]
3,103.9 ± 0.1,CCCCCCCCCCCCCCCCCCCC [eicosane]
4,116.1 ± 0.1,CCCCCCCCCCCCCCCCCCCCCCCC [tetracosane]
5,122 ± 1,CCCCCCCCCCCCCCCCCCCCCCCCCC [hexacosane]
6,116.3 ± 0.1,CCCCCCCCCCCCCCCCCCCCC(=O)OC [methyl heneicosanoate]
7,110 ± 1,CCCCCCCCCCCCCCCCCCCCCC [docosane]
8,128.6 ± 0.5,CCCCCCCCCCCCCCCCCCCCCCCCCCCC [octacosane]
9,109.3 ± 0.5,CCCCCCCCCCCCCCCCCC(=O)OCC [ethyl octadecanoate]
10,101.8 ± 0.1,CCCCCCCCCCCCCCCC(=O)OC [methyl hexadecanoate]
11,111.1 ± 0.1,CCCCCCCCCCCCCCCCCCCC(=O)OC [methyl eicosanoate]

row,SMILES,molar enthalpy [kJ/mol]
1,CCCCOC(=O)c1ccccc1C(=O)OCCCC [dibutyl phthalate],99.3 ± 0.1
2,"CCCCCCCCOC(=O)c1ccccc1C(=O)OCCCCCCCC [dioctyl 1,2-benzenedicarboxylate]",122.7 ± 0.2
3,"CCCCOC(=O)c1ccccc1C(=O)OCc1ccccc1 [benzyl butyl 1,2-benzenedioate]",109.8 ± 0.2
4,CCOC(=O)c1ccccc1C(=O)OCC [diethyl phthalate],88.6 ± 0.1
5,"COC(=O)c1ccccc1C(=O)OC [dimethyl 1,2-benzenedicarboxylate]",84.2 ± 0.1
6,"CCCCC(CC)COC(=O)c1ccccc1C(=O)OCC(CC)CCCC (configuration not stated) [bis(2-ethylhexyl) 1,2-benzenedicarboxylate]",116.9 ± 0.1
